Where two headings read alike, the source gives them in different places.
Experiments:
guinea pig ileal strips = experiment: Modified Schultz-Dale Assay: inhibition of antigen-induced anaphylactic contraction of passively sensitized ileal strips; format: cell-based; conditions: Cavia porcellus; for IC50: value in parentheses
Protocol: In the classic Schultz-Dale assay, guinea pigs are sensitized with a known immunogen or passively sensitized with guinea pig antiserum to the immunogen, strips of ilea are recovered, and the extent of their contraction in response to a challenge exposure to the same antigen is observed as a measure of anaphylactic response. The experiments described here follow this same procedure while exposing the ileal strips to test compound before exposure to antigen challenge (preincubation) and, in some strips, also after antigen challenge (postincubation).
The male Hartley strain guinea pigs (450-650 g) whose ilea are used in this Schultz-Dale assay are passively sensitized with IgE antiovalbumin antiserum as follows. The antiserum is developed in another group of similar guinea pigs as described in Graziano, et al., J. Immunol. 127:1067-1070 (1981) and pooled. The test animals are then each passively sensitized by subcutaneous injection of the pooled antiserum (1 ml).
About 2-7 days after sensitization, the guinea pigs are sacrificed and the terminal ilea are removed. They are cut into strips (6 cm) and positioned in tissue baths (5 ml) of Tyrode's solution with atropine (1 μg/ml) at 37° C. One end of each strip is fixed to an immobile post and the other movably mounted to a Grass Ft. 0.03 linear force displacement transducer and a Grass Model 7 polygraph. The tension is set (at 1 gram) and the tissue is allowed to equilibrate (10 minutes). Tissue viability is tested by establishing a consistent response to histamine (0.5 μg/ml). After several histamine-induced contractions, mepyramine (1 μg/ml) is added to inhibit any contractions due to the anaphylactic release of endogenous histamine.
A minimum of 3 animals are used for each compound tested and, of the 6 strips from each animal, 2 strips are incubated (preincubation) with a test compound (final concentration 75 μM), 2 with an appropriate reference standard (BW-755C at 75 μM) and 2 with saline solution (control) for a predetermined period (5 minutes). After this initial incubation period, ovalbumin (100 μg/ml) is added to each bath and the resulting anaphylactic contraction measured. The data are recorded as of tension produced by the tissue in excess of the 1 gram tension that was initially set. At the peak of the contraction, a dose of the same test compound (75 μM) is added (postincubation) to one control strip and reference standard (FPL-55712 at 1.9 μM). The strips are monitored (1 minute) and any effect on the established contraction is recorded as described above.
Two types of data are derived from the above protocol. First, pre-antigen inhibition (prechallenge) is expressed as the percent inhibition in each of the strips preincubated with test compound measured against the averaged contractions of the two control strips. Prechallenge inhibition by the reference standard is also determined in each experiment as a positive control. The reference used consistently gives 60-80% inhibition. Second, post-antigen inhibition (postchallenge) is determined by measuring the decrease in anaphylactic contraction of a control strip produced by adding either a test compound or standard at the peak of the contraction. The reference used consistently gives 70-90% inhibition. The data in each experiment, therefore, consists of 2 prechallenge and 1 postchallenge value for both test compound and standard.

[1] = system: 5-HETE biosynthesized by glycogen-stimulated polymorphonuclear leucocytes (PMNs); experiment: Hydroxyacid Profile Assay (HPA): inhibition of 5-HETE synthesis in glycogen-elicited rabbit PMNs; format: cell-based; conditions: Oryctolagus cuniculus, Leucocyte; for inhibition at 100 µM: 5-HETE synthesis, read-out: Percent Inhibition (100 μM); for IC50: read-out: IC50 (50% inhibition of 5-HETE synthesis)
Protocol: As previously noted 5-HETE biosynthesis serves as a marker for arachidonic acid metabolism via the 5-lipoxygenase pathway which produces (poly)hydroxyeicosatetraenoic acids and the potent bronchoconstrictor and vasoactive leukotrienes LTC4, LTD4 and LTE4.
Buffer A (8.70 g NaCl; 0.27 g KCl; 0.42 g Na2 HPO4; 0.76 g KH2 PO4; and 1.00 g dextrose per liter H2 O; pH 7.0) (0.325 ml) is introduced into each of a battery of screwtop culture tubes. Then, a solution of a compound (0.100 ml) to be assayed is dispensed into individual tubes. Assays are performed in duplicate at 100 μM and 10 μM concentrations. Control tubes receive Buffer A (0 100 ml) in lieu of compound. Next, rabbit PMNs (2×10^7 cells/tube; 4×10^7cells/ml) (0.500 ml) are added to each tube. The rabbit PMN's used are elicited with glycogen and made into a preparation substantially as described by F. Hirata. et al (1979) Proc. Natl. Acad. Sci. USA, 76, 2640-2643. The tubes are vortexed and preincubated in a shaking 37° C. water bath for 15 minutes.
Thereafter, the tubes are removed from the water bath and calcium ionophore solution (400 μg/ml A-23187; Sigma Chemical Co., St. Louis, Mo.) (0.025 ml), ^14 C-arachidonic acid (0.25 μCi in 0.025 ethanol; New England Nuclear Products, Boston, Mass.) (0.025 ml) and calcium chloride solution (CaCl2.2H2 O ); 105.8 mg/10 […]) (0.025 ml) are added in that order. The tubes are vortexed and returned to the water bath for 30 minutes. The reaction is then terminated by the addition of HCl (0.8N, 0.025 ml).
Extraction and concentration of ^14 C-labeled 5-HETE is performed as follows. First, solution containing 2 parts ethyl acetate, 3 parts CH2 Cl2 and 0.01 ml unlabeled arachidonic acid is added (5.01 ml) to each tube. The tubes are capped and briefly vortexed. The contents of each tube is poured into a polypropylene column fitted with a porous polyethylene disc and Whatman phase separation filter paper. The organic phase is collected by gravity filtration into a conical centrifuge tube, While the aqueous phase is retained in the column by the phase separation paper. Each culture tube is rinsed once with the EtOAc:CH2 Cl2 solution (1.0 ml) and the wash added to the column. The organic phase is concentrated to (0.5 ml) using a Savant Speed Vac concentrator (Savant Instruments, Inc., Hicksville, N.Y.).
After concentration of the organic phase, the tubes are vortexed and stored covered on ice. An aliquot (0.01 ml) is then removed for liquid scintillation counting in a Beckman LS7500 Liquid Scintillation Counter (Beckman Instruments Corp., Fullerton, Calif.). Based on the count, the number of μl containing 1×10^5 cpm is calculated. This volume is applied to a silica gel covered glass plate in a 10 mm streak. The remaining fluid in the tube is measured via syringe and noted.
The TLC plate is placed in a chromatography chamber containing the following solvent system: CHCl3 :MeOH:HOAc:H2 O (v/v;90: 9:1:0.65). The plate is then air dried and counted on a Berthold Linear TLC Analyzer (Berthold Instruments, Inc., Pittsburgh, Pa.) for 30 minutes per lane if a dose response curve had been run, or for 5 min per lane if drug screening had been done. The integrated area of the 5-HETE band for each compound is converted to percent of control and analyzed. The percent inhibition at 100 μM compound concentration and the concentration (μM) which produces a 50% inhibition of 5-HETE synthesis (IC50), are determined for those compounds described in Examples 1-36, and are reported in Table 1 .

[2] = added at peak of contraction after antigen, read-out: Postchallenge mean percent inhibition
[3] = preincubation before ovalbumin antigen, read-out: Prechallenge mean percent inhibition
[4] = added at peak of contraction after antigen, read-out: Postchallenge IC50
[5] = preincubation before ovalbumin antigen, read-out: Prechallenge IC50

IC50 [1] | Compound | inhibition at 75 µM (guinea pig ileal strips; [2]) | inhibition at 75 µM (guinea pig ileal strips; [3]) | IC50 (guinea pig ileal strips; [4]) | IC50 (guinea pig ileal strips; [5]) | inhibition at 100 µM [1] | inhibition at 75 µM (guinea pig ileal strips; positive control, preincubation, read-out: Prechallenge inhibition by the reference standard) | inhibition at 1.9 µM (guinea pig ileal strips; 1.9 μM, positive control, added at peak of contraction, read-out: Postchallenge inhibition by the reference standard)
5 µM | CCCCCCCc1ccc(C(=O)[C@@H]2CCCC[C@H]2C(=O)O)cc1 (relative stereo) [Example 23, Trans-2-(4-heptylbenzoyl)cyclohexane-1-carboxylic acid] | 76% | 100% | > 25 µM | 14 µM | 70% | – | –
– | CCCCCCCCCc1ccc(C(=O)[C@@H]2CCCC[C@H]2C(=O)O)cc1 (relative stereo) [Example 32, Trans-2-(4-n-nonylbenzoyl)cyclohexane-l-carboxylic acid] | 20% | 92% | – | – | 85% | – | –
– | NC1=NN(c2cccc(C(F)(F)F)c2)CC1 [BW-755C, reference compound] | – | – | – | – | – | 60 to 80% | –
– | CCCCCCc1ccc(C(=O)CCCCC(=O)O)cc1 [Example 5, 5-(4-n-Hexylbenzoyl)pentanoic acid] | 58% | 65% | – | – | 47% | – | –
– | CCCCCCCCc1ccc(C(=O)CCCCC(=O)O)cc1 [Example 6, 5-(4-n-Octylbenzoyl)pentanoic acid] | 0% | 63% | – | – | 77% | – | –
– | CCCCCCCc1ccc(C(=O)CCCCC(=O)O)cc1[N+](=O)[O-] [Example 7, 5-(3-Nitro-4-n-heptylbenzoyl)pentanoic acid] | 28% | 96% | > 75 µM | 14 µM | 84% | – | –
– | CCCCCCCc1ccc(C(=O)CCCCC(=O)O)cc1N [Example 8, 5-(3-Amino-4-n-heptylbenzoyl)pentanoic acid] | 48% | 94% | > 75 µM | 37 µM | 47% | – | –
– | CCCCCCOc1ccccc1C(=O)CCCCC(=O)O [Example 13, 5-(2-n-Hexyloxybenzoyl)pentanoic acid] | 43% | 87% | 45 µM | 15 µM | 64% | – | –
– | CCCCCc1ccc(C(=O)Cc2cccc(C(=O)O)c2)cc1 [Example 15, 3-(4-pentylphenacyl)benzoic acid] | 13% | 81% | > 75 µM | 27 µM | 78% | – | –
4 µM | CCCCCCCc1ccc(C(=O)c2cccc(C(=O)O)c2)cc1 [Example 16, 3-(4-n-heptylbenzoyl)benzoic acid] | 63% | 86% | 57 µM | 12 µM | 75% | – | –
– | CCCCCCCc1ccc(C(=O)Cc2ccccc2C(=O)O)cc1 [Example 17, 2-(4-n-Heptylphenacyl)benzoic acid] | 100% | 90% | 33 µM | 10 µM | 80% | – | –
– | CCCCCCCc1ccc(C(=O)Cc2cccc(C(=O)O)c2)cc1 [Example 18, 3-(4-n-Heptylphenacyl)benzoic acid] | 70% | 97% | 51 µM | 10 µM | 73% | – | –
– | CCCCCCCCc1ccc(C(=O)Cc2cccc(C(=O)O)c2)cc1 [Example 19, 3-(4-n-Octylphenacyl)benzoic acid] | 30% | 78% | > 75 µM | 51 µM | < 44% | – | –
– | CCCCCCCc1ccc(C(=O)CC(C)(C)CC(=O)O)cc1 [Example 24, 4-(4-Heptylbenzoyl)-3,3-dimethylbutanoic acid] | 43% | 84% | 40 µM | 26 µM | 51% | – | –
– | CCCCOc1ccc(C(=O)c2cccc(C(=O)O)c2)c(OC)c1 [Example 25, 3-(4-Butoxy-2-methoxybenzoyl)benzoic acid] | 46% | 84% | 14 µM | 22 µM | 70% | – | –
– | CCCCOc1ccc(C(=O)c2cccc(C(=O)O)c2)c(O)c1 [Example 26, 3-(4-Butoxy-2-hydroxybenzoyl)benzoic acid] | 59% | 85% | – | – | – | – | –
– | CCCCOc1cc(OC)ccc1C(=O)c1cccc(C(=O)O)c1 [Example 28, 3-(2-Butoxy-4-methoxybenzoyl)benzoic acid] | 35% | 61% | – | – | – | – | –
– | CCCCCCOc1cc(C)ccc1C(=O)c1cccc(C(=O)O)c1 [Example 31, 3-(2-n-Hexyloxy-4-methylbenzoyl)-benzoic acid] | 59% | 81% | > 75 µM | 44 µM | – | – | –
– | CCCCCCCc1ccc(C(=O)c2cccc(-c3nn[nH]n3)c2)cc1 [Example 36, 5-3-(4-n-Heptylbenzoyl)phenyl!tetrazole] | 14% | 85% | > 75 µM | 7 µM | – | – | –
– | CCCc1c(OCC(O)COc2ccc3c(=O)cc(C(=O)O)oc3c2CCC)ccc(C(C)=O)c1O (centres unmarked) [FPL-55712, reference compound] | – | – | – | – | – | – | 70 to 90%
